For 18 compounds, Ki and IC50 results are on record in patent US10301261B2, “Substituted indoles as modulators of ROR-gamma” (Vitae Pharmaceuticals, LLC, priority 2015, dated 2019).

For experiment [1], the target named is recombinant RORγ Ligand Binding Domain (LBD) protein (Homo sapiens (Human), UniProt P51449). The experiment in a line: Radio-Ligand RORγ Binding Assay (Assay 1). Particulars: radio-ligand 25-hydroxy [26,27-3H]-cholesterol competition. The protocol: Radio-Ligand RORγ Binding Assay (Assay 1)
Compounds described herein were tested for ability to bind to RORγ in a cell-free competition assay with commercially available radio-ligand (RL), 25-hydroxy [26,27-^3H]-cholesterol (PerkinElmer, Cat. # NET674250UC), for a ligand binding site on a recombinant RORγ Ligand Binding Domain (LBD) protein expressed as a 6×His-Glutathione-S-Transferase (GST) fusion. […] The plate was shaken at 700 rpm for 20 min and incubated for 10 min at rt, after which 40 μL of poly-Lys YSi SPA beads (PerkinElmer, Cat. # RPNQ0010) were added to achieve 50 μg of the beads per well. The plate was incubated on an orbital shaker for 20 min and then for 10 min without agitation at rt. SPA signal for tritium beta radiation was registered on PerkinElmer Microbeta plate reader. […] The percent inhibition vs. concentration data were fit into a four-parameter model, and IC50 values were calculated from the fit as the concentrations corresponding to the inflection points on the dose-response curves. […]

The target in experiment [2] is full-length RORγt in Jurkat cells (Homo sapiens (Human), UniProt P51449). The experiment in a line: RORγt 5×RORE Assay in Jurkat Cells (Assay 2). In kind it is cell-based. The note with it: RORγt 5×RORE Nanoluc reporter. On the procedure:
[formula] RORγt 5×RORE Assay in Jurkat Cells (Assay 2)
Compounds described herein were tested for RORγ inverse agonist activity in a cell-based, transcriptional activity assay. […] (Promega, Cat. # N1021) using KpnI and HindIII restriction sites. […] Tested compounds were added to the cells in the same media (final concentration of DMSO was 0.1% (v/v)), and the plates were incubated at 37° C./5% CO2 for 16-18 hrs. Luciferase activity in the conditioned supernatants was determined with NanoGlo® assay reagents (Promega, Cat.# N1130).

A word on the Ki: it is the equilibrium dissociation constant of an inhibitor or competing ligand from its target. The IC50 is the concentration needed to halve the response being measured. Read a low IC50 as inhibition by little substance.

Sequence of full-length RORγt in Jurkat cells (P51449 other isoform, or with tags, fused parts or gaps): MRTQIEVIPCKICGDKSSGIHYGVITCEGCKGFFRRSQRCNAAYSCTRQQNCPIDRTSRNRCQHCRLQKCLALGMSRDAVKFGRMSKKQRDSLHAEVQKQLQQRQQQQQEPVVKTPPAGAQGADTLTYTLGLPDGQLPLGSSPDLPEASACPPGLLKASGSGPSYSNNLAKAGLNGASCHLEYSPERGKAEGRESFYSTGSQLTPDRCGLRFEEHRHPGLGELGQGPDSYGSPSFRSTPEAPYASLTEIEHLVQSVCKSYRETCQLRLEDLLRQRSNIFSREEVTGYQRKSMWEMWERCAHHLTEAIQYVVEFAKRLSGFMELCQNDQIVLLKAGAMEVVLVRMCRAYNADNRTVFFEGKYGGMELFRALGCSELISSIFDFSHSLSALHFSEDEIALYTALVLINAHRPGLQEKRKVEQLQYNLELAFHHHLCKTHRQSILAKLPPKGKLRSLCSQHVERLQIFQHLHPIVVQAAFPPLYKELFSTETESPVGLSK
Sequence of recombinant RORγ Ligand Binding Domain (LBD) protein (P51449 269-508): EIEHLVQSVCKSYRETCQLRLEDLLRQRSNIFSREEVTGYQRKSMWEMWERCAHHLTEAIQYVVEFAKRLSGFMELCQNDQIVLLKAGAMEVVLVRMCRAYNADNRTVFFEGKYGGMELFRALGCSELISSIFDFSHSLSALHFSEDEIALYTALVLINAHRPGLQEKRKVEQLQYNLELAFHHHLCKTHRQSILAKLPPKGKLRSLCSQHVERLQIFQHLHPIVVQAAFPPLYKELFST

In the case of `CCn1c(OCC2CC(F)(F)C2)nc2cc(C(=O)N[C@@H](CO)c3ccc(S(=O)(=O)CC)cc3)ccc21` [BE-13, (R)-2-((3,3-difluorocyclobutyl)methoxy)-1-ethyl-N-(1-(4-(ethylsulfonyl)phenyl)-2-hydroxyethyl)-1H-benzo[d]imidazole-5-carboxamide], the Ki in experiment [1] is less than 100 nM. Also, the IC50 in experiment [2] was more than 1000 nM.
Turning to `CCn1c(OCc2ccc(C(F)(F)F)cc2)nc2cc(C(=O)N[C@@H](CO)c3ccc(S(=O)(=O)CC)cc3)ccc21` [BE-14, (R)-1-ethyl-N-(1-(4-(ethylsulfonyl)phenyl)-2-hydroxyethyl)-2-((4-(trifluoromethyl)benzyl)oxy)-1H-benzo[d]imidazole-5-carboxamide], in experiment [1], the Ki is less than 100 nM. The IC50 in experiment [2] was less than 100 nM.
With `CCS(=O)(=O)c1ccc([C@H](CO)NC(=O)c2ccc3c(c2)nc(OCc2ccc(C(F)(F)F)cc2)n3C2CC2)cc1` [BE-15, (R)-1-cyclopropyl-N-(1-(4-(ethylsulfonyl)phenyl)-2-hydroxyethyl)-2-((4-(trifluoromethyl)benzyl)oxy)-1H-benzo[d]imidazole-5-carboxamide], the Ki in experiment [1] was less than 100 nM. The compound also had an IC50 in experiment [2] of less than 100 nM.
For `CCS(=O)(=O)c1ccc([C@H](CO)NC(=O)c2ccc3c(c2)nc(OCC2CCC(F)(F)CC2)n3C2CC2)cc1` [BE-16, (R)-1-cyclopropyl-2-((4,4-difluorocyclohexyl)methoxy)-N-(1-(4-(ethylsulfonyl)phenyl)-2-hydroxyethyl)-1H-benzo[d]imidazole-5-carboxamide], the Ki in experiment [1] was less than 100 nM. The IC50 in experiment [2] was less than 100 nM.
Turning to `CCn1c(OCC2CC2)nc2cc(C(=O)N[C@@H](CO)c3ccc(S(=O)(=O)CC)cc3)ccc21` [BE-17, (R)-2-(cyclopropylmethoxy)-1-ethyl-N-(1-(4-(ethylsulfonyl)phenyl)-2-hydroxyethyl)-1H-benzo[d]imidazole-5-carboxamide], the Ki in experiment [1] was less than 100 nM. Moreover, in experiment [2], the IC50 is more than 1000 nM.
For `CCS(=O)(=O)c1ccc(CNC(=O)c2ccc3c(c2)nc(C[C@H]2CC[C@H](C(F)(F)F)CC2)n3C2CC2)cc1` [BE-18.1, 1-cyclopropyl-N-(4-(ethylsulfonyl)benzyl)-2-((trans-4-(trifluoromethyl)cyclohexyl)methyl)-1H-benzo[d]imidazole-5-carboxamide] the same measures were less than 100 nM and less than 100 nM.
Consider `CCS(=O)(=O)c1ccc(CNC(=O)c2ccc3c(c2)nc(C[C@H]2CC[C@@H](C(F)(F)F)CC2)n3C2CC2)cc1` [BE-18.2, 1-cyclopropyl-N-(4-(ethylsulfonyl)benzyl)-2-((cis-4-(trifluoromethyl)cyclohexyl)methyl)-1H-benzo[d]imidazole-5-carboxamide], for which the Ki in experiment [1] is less than 100 nM. In addition, in experiment [2], the IC50 was more than 1000 nM.
For the compound `CCS(=O)(=O)c1ccc(CNC(=O)c2ccc3c(c2)nc(C[C@H]2CC[C@H](C(F)(F)F)CC2)n3CC(C)C)cc1` [BE-19.1, N-(4-(ethylsulfonyl)benzyl)-1-isobutyl-2-(((1r,4r)-4-(trifluoromethyl)cyclohexyl)methyl)-1H-benzo[d]imidazole-5-carboxamide], the Ki in experiment [1] was less than 100 nM. Also, the IC50 in experiment [2] is less than 100 nM.
For `CCS(=O)(=O)c1ccc(CNC(=O)c2ccc3c(c2)nc(C[C@H]2CC[C@@H](C(F)(F)F)CC2)n3CC(C)C)cc1` [BE-19.2, N-(4-(ethylsulfonyl)benzyl)-1-isobutyl-2-(((1s,4s)-4-(trifluoromethyl)cyclohexyl)methyl)-1H-benzo[d]imidazole-5-carboxamide], the Ki in experiment [1] was less than 100 nM. This compound also displayed an IC50 in experiment [2] of more than 1000 nM.
`CCn1c(C[C@H]2CC[C@H](C(F)(F)F)CC2)nc2cc(C(=O)NCc3ccc(S(=O)(=O)CC)cc3)ccc21` [BE-20, 1-ethyl-N-(4-(ethylsulfonyl)benzyl)-2-(((1r,4r)-4-(trifluoromethyl)cyclohexyl)methyl)-1H-benzo[d]imidazole-5-carboxamide]: the Ki in experiment [1] is less than 100 nM. In addition, the IC50 in experiment [2] is less than 100 nM.
Turning to `CCS(=O)(=O)c1ccc([C@H](CCO)NC(=O)c2ccc3c(c2)nc(C[C@H]2CC[C@H](C(F)(F)F)CC2)n3C2CC2)cc1` [BE-25, 1-cyclopropyl-N-((S)-1-(4-(ethylsulfonyl)phenyl)-3-hydroxypropyl)-2-(((1r,4S)-4-(trifluoromethyl)cyclohexyl)methyl)-1H-benzo[d]imidazole-5-carboxamide], the Ki in experiment [1] is less than 100 nM. Further, the IC50 in experiment [2] was less than 100 nM.
In the case of `CCS(=O)(=O)c1ccc(CNC(=O)c2ccc3c(c2)nc(C[C@H]2CC[C@H](C(F)(F)F)CC2)n3CC(C)C)nc1` [BE-26.1, N-((5-(ethylsulfonyl)pyridin-2-yl)methyl)-1-isobutyl-2-(((1r,4r)-4-(trifluoromethyl)cyclohexyl)methyl)-1H-benzo[d]imidazole-5-carboxamide], the Ki in experiment [1] is less than 100 nM. In experiment [2], this compound registered an IC50 of more than 1000 nM.
With `CCS(=O)(=O)c1ccc(CNC(=O)c2ccc3c(c2)nc(C[C@H]2CC[C@@H](C(F)(F)F)CC2)n3CC(C)C)nc1` [BE-26.2, N-((5-(ethylsulfonyl)pyridin-2-yl)methyl)-1-isobutyl-2-(((1s,4s)-4-(trifluoromethyl)cyclohexyl)methyl)-1H-benzo[d]imidazole-5-carboxamide], in experiment [1], the Ki was less than 100 nM. This compound also registered an IC50 in experiment [2] of more than 1000 nM.
`CCS(=O)(=O)c1ccc(CNC(=O)c2ccc3c(c2)nc(C[C@H]2CC[C@H](C(F)(F)F)CC2)n3C2CC2)nc1` [BE-27.1, 1-cyclopropyl-N-((5-(ethylsulfoyl)pyridin-2-yl)methyl)-2-(((1r,4r)-4-(trifluoromethyl)cyclohexyl)methyl)-1H-benzo[d]imidazole-5-carboxamide]: the Ki in experiment [1] is less than 100 nM. The compound also gave an IC50 in experiment [2] of less than 100 nM.
With `CCS(=O)(=O)c1ccc(CNC(=O)c2ccc3c(c2)nc(C[C@H]2CC[C@@H](C(F)(F)F)CC2)n3C2CC2)nc1` [BE-27.2, 1-cyclopropyl-N-((5-(ethylsulfonyl)pyridin-2-yl)methyl)-2-(((1s,4s)-4-(trifluoromethyl)cyclohexyl)methyl)-1H-benzo[d]imidazole-5-carboxamide], in experiment [1], the Ki was less than 100 nM. In experiment [2], this compound showed a concentration for half-maximal inhibition (IC50) of more than 1000 nM.
As to `CCS(=O)(=O)c1ccc([C@H](CO)NC(=O)c2ccc3c(c2)nc(C[C@H]2CC[C@H](C(F)(F)F)CC2)n3C2CC2)nc1` [BE-28, 1-cyclopropyl-N-((R)-1-(5-(ethylsulfonyl)pyridin-2-yl)-2-hydroxyethyl)-2-(((1r,4R)-4-(trifluoromethyl)cyclohexyl)methyl)-1H-benzo[d]imidazole-5-carboxamide], the Ki in experiment [1] is less than 100 nM. Also, in experiment [2], the IC50 was less than 100 nM.
Consider `CS(=O)(=O)c1ccc(CNC(=O)c2ccc3c(c2)nc(C[C@H]2CC[C@H](C(F)(F)F)CC2)n3C2CC2)cc1` [BE-30, 1-cyclopropyl-N-(4-(methylsulfonyl)benzyl)-2-(((1r,4r)-4-(trifluoromethyl)cyclohexyl)methyl)-1H-benzo[d]imidazole-5-carboxamide], for which the inhibitory constant (Ki) in experiment [1] was less than 100 nM. Also, in experiment [2], the IC50 is less than 100 nM.
In the case of `CNS(=O)(=O)c1ccc(CNC(=O)c2ccc3c(c2)nc(C[C@H]2CC[C@H](C(F)(F)F)CC2)n3C2CC2)nc1` [BE-31, 1-cyclopropyl-N-((5-(N-methylsulfamoyl)pyridin-2-yl)methyl)-2-(((1r,4r)-4-(trifluoromethyl)cyclohexyl)methyl)-1H-benzo[d]imidazole-5-carboxamide], the Ki in experiment [1] is less than 100 nM. The compound also gave an IC50 in experiment [2] of more than 1000 nM.
